Reference: EP0317728A2, “Use of 9-(beta-D-arabinofuranosyl) adenine derivatives for the preparation of pharmaceutical compositions for the treatment of aids” (WARNER-LAMBERT COMPANY, priority 1987, dated 1989)

Legend:
Format in all cases: cell-based
[1] = tested on: HTLV-III/LAV; assay: Inhibition of cytopathic effect (syncytial giant cell formation) in HTLV-III/LAV infected H9 cells; settings: cytopathic effect (syncytial giant cell formation) on day 7 post infection 50% that in drug-free control cultures, read-out: CPE* 50% Inhibitory Concentrations
Experimental: (§1) The antiviral activity of the compounds of the present invention against the HTLV-III/LAV virus was evaluated by determining the degree of inhibition of cytopathic effect (CPE) and reverse transcriptase (RT) activity of the drug in a subline of H9 cells at various concentrations.
(§2) HTLV-III/LAV inoculum was standardized for reverse transcriptase (RT) activity using purified avian myeloblastosis viral RT (BRL Labs, Gaithersberg, MD) and used to infect polybrene treated H9 cells at 0.02 RT units of HTLV-III/LAV per 2 x 10⁶ cells. The virus was adsorbed for two hours at 37°C and then the cells were washed and resuspended in RPMI-10% fetal bovine serum at 2 x 10⁵ cells/ml and dispersed in 1-ml aliquots into 24-well plates.
Syncytial giant cell formation appeared at 5-6 days post infection, and this cytopathic effect (CPE) was quantitatively measured by dispersing 0.1-ml aliquots into 0.1-ml portions of absolute methanol and enumerating the giant cells microscopically. The inhibition of cytopathic effect by treatment with representative compounds of the present invention is shown in the table, together with the inhibitory effect on reverse transcriptase activity.

[2] = tested on: HTLV-III/LAV; assay: Inhibition of reverse transcriptase activity in culture medium of HTLV-III/LAV infected H9 cells; settings: reverse transcriptase in the culture medium on day 10 post infection 50% that in drug-free control cultures, read-out: RT** 50% Inhibitory Concentrations
Experimental: as §1, §2
Reverse transcriptase activity (RT) was measured using 1-ml culture aliquots which were clarified at 600 xg for 30 minutes, precipitated in 10% polyethylene glycol-0.13 M NaCl at 4°C for eighteen hours, and centrifuged at 600 xg for sixty minutes. The pellet was dissolved in glycerol-Tris buffer (50% glycerol, 25 mM Tris HCl, pH 7.5, 5 mM dithiothreitol, 15 mM KCl, 0.025% Triton-X, and 0.25 mM EDTA). […] Background counts were determined using poly dA oligo dT₁₂₋₁₈ as template and subtracted from the poly rA dT primer to determine the thymidine incorporation specifically due to reverse transcriptase activity. […]

[3] = tested on: uninfected H9 cells; settings: human, 6 day
Experimental: as §1

Structure (SMILES) | IC50 [1] [µM] | IC50 [2] [µM] | IC50 ([1]; Human immunodeficiency virus 1, 168 h) [µM] | IC50 ([2]; Human immunodeficiency virus 1, 240 h) [µM] | Cell Number*** 50% Inhibitory Concentrations [3] [µM]
Nc1ncnc2c1ncn2[C@@H]1O[C@H](COP(=O)(O)O)[C@@H](O)[C@@H]1O [9-(β-D-arabinofuranosyl)adenine, 5′-phosphate] | 18 | 11 |  |  | 
Nc1ncnc2c1ncn2[C@@H]1O[C@H](CO)[C@@H](O)[C@@H]1O [9-(β-D-arabinofuranosyl)adenine] |  |  | 7 | 7 | >100
